Data on 1 compound can be found in paper PMC6934184, “Selective DNA-PKcs inhibition extends the therapeutic index of localized radiotherapy and chemotherapy” (The Journal of Clinical Investigation, 2019).

The structures appear in SMILES notation.

In the test the target is T1, TEK (TIE2) Y1108F (Homo sapiens, UniProt Q02763, Y1108F).
T1 construct: purchased Thermo Fisher Scientific (Life Technologies) SelectScreen
Description: SelectScreen LanthaScreen. The format is binding. Conditions: read-out: % displacement. An outline of the steps: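 Percent values come from Thermo SelectScreen profiling of NU5455, combining activity and binding assays. CSF1R was run in Z'LYTE format at Km app ATP, and CAMK1 in Adapta format with ATP listed at 10.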

T1 sequence (Q02763 23-1124 Y1108F): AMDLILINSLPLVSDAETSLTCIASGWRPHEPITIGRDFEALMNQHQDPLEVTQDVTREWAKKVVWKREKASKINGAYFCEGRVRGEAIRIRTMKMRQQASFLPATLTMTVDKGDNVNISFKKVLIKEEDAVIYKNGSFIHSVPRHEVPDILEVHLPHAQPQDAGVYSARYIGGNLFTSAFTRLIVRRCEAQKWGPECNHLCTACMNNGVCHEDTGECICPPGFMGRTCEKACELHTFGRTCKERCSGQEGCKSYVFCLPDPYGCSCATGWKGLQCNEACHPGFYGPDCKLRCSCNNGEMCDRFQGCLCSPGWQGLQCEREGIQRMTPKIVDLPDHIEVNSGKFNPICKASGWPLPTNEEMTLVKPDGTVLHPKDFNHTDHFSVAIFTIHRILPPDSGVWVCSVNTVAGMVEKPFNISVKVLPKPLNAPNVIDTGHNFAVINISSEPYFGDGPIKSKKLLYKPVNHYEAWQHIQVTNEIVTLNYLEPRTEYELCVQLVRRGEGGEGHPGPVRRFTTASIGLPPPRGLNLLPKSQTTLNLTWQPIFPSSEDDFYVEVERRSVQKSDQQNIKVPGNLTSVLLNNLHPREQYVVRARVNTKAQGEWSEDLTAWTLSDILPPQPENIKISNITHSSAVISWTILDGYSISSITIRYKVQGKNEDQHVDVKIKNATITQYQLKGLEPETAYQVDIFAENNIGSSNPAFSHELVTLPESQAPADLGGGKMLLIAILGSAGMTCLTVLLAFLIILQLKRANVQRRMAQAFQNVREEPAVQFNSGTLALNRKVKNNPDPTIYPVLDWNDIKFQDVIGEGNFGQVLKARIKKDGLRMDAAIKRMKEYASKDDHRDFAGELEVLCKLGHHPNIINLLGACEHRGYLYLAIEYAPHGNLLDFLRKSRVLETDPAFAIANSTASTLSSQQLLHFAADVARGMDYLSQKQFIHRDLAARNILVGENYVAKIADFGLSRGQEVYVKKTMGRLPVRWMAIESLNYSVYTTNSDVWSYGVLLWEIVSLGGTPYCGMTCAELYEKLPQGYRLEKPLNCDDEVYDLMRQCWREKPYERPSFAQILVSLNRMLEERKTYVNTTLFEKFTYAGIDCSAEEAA

As for `CN(C(=O)CN1CCOCC1)c1ccc2sc3c(-c4cccc5c(=O)cc(N6CC7CCC(C6)O7)oc45)cccc3c2c1` [NU5455], the inhibition at 1 µM was -0.3%.
